In ChEMBL document CHEMBL4825672, “Marine Bile Natural Products as Agonists of the TGR5 Receptor” (J Nat Prod, 2021):
Activity calls are given as the source filed them. The rule behind the calls is not given here.

Assays:
[1] = tested on: HEK293; assay: Induction of intracellular calcium level in human HEK293 cells at 0.5 to 0.67 mM in absence of extracellular calcium by Fura-2AM dye based fluorometric analysis; format: functional, cell-based; conditions: dose 0.5-0.67 mM
[2] = tested on: HEK293; assay: Cytotoxicity against human HEK293 cells transfected with TGR5 assessed as reduction in cell viability at 1 mM measured after 2.5 hrs by MTS assay; format: cell-based; conditions: hek293, 2.5 h, 1000 µM
[3] = target: T1, G-protein coupled bile acid receptor 1 (Homo sapiens) (UniProt Q8TDU6); assay: Agonist activity at TGR5 (unknown origin) transfected in HEK293 cells assessed as increase in intracellular calcium level in absence of extracellular calcium by Fura-2AM dye based fluorometric analysis; format: functional, cell-based; conditions: filed as agonist, dose 0.5-0.67 mM
T1 sequence (whole entry): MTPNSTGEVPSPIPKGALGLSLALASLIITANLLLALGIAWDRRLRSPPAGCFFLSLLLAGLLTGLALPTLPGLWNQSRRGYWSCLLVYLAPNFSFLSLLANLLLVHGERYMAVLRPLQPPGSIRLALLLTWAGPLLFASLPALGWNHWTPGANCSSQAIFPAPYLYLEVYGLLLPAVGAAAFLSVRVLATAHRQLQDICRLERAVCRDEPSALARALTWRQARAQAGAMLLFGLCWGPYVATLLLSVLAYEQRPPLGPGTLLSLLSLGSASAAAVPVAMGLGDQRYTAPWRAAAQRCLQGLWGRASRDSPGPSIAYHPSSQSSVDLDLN

[4] = target: T1, G-protein coupled bile acid receptor 1 (Homo sapiens); assay: Agonist activity at TGR5 (unknown origin) transfected in HEK293 cells assessed as increase in intracellular calcium level at 0.5 to 0.67 mM in presence of Galphaq inhibitor, UBO-QIC and in absence of extracellular calcium by Fura-2AM dye based fluorometric analysis; format: functional, cell-based; conditions: dose 0.5-0.67 mM
[5] = tested on: HEK293; assay: Induction of intracellular calcium level in human HEK293 cells at 1 mM in absence of extracellular calcium by Fura-2AM dye based fluorometric analysis; format: functional, cell-based
[6] = target: T1, G-protein coupled bile acid receptor 1 (Homo sapiens); assay: Agonist activity at TGR5 (unknown origin) transfected in HEK293 cells assessed as increase in intracellular calcium level at 1 mM in presence of Galphaq inhibitor, UBO-QIC and in absence of extracellular calcium by Fura-2AM dye based fluorometric analysis; format: functional, cell-based
[7] = tested on: HEK293; assay: Cytotoxicity against human HEK293 cells transfected with TGR5 assessed as reduction in cell viability at 0.33 to 0.5 mM measured after 2.5 hrs by MTS assay; format: cell-based; conditions: hek293, 2.5 h, 500 µM, dose 0.33-0.5 mM
[8] = target: T1, G-protein coupled bile acid receptor 1 (Homo sapiens); assay: Agonist activity at TGR5 (unknown origin) transfected in HEK293 cells assessed as increase in intracellular calcium level at 0.33 mM in presence of Galphaq inhibitor, UBO-QIC and in absence of extracellular calcium by Fura-2AM dye based fluorometric analysis; format: functional, cell-based
[9] = tested on: HEK293; assay: Induction of intracellular calcium level in human HEK293 cells at 0.33 mM in presence of Galphaq inhibitor, UBO-QIC and in absence of extracellular calcium by Fura-2AM dye based fluorometric analysis; format: functional, cell-based
[10] = tested on: HEK293; assay: Induction of intracellular calcium level in human HEK293 cells at 0.1 to 0.33 mM in absence of extracellular calcium by Fura-2AM dye based fluorometric analysis; format: functional, cell-based; conditions: dose 0.1-0.33 mM
[11] = target: T1, G-protein coupled bile acid receptor 1 (Homo sapiens); assay: Agonist activity at TGR5 (unknown origin) transfected in HEK293 cells assessed as increase in intracellular calcium level at 0.1 mM in presence of Galphaq inhibitor, UBO-QIC and in absence of extracellular calcium by Fura-2AM dye based fluorometric analysis; format: functional, cell-based; conditions: filed as agonist
[12] = tested on: HEK293; assay: Induction of intracellular calcium level in human HEK293 cells at 0.1 mM in presence of Galphaq inhibitor, UBO-QIC and in absence of extracellular calcium by Fura-2AM dye based fluorometric analysis; format: functional, cell-based
[13] = tested on: HEK293; assay: Cytotoxicity against human HEK293 cells transfected with TGR5 assessed as reduction in cell viability at 0.67 mM measured after 2.5 hrs by MTS assay; format: cell-based; conditions: hek293, 2.5 h, 670 µM
[14] = target: T1, G-protein coupled bile acid receptor 1 (Homo sapiens); assay: Agonist activity at TGR5 (unknown origin) transfected in HEK293 cells assessed as increase in intracellular calcium level at 0.1 to 0.33 mM in absence of extracellular calcium by Fura-2AM dye based fluorometric analysis; format: functional, cell-based; conditions: filed as agonist, dose 0.1-0.33 mM

With C[C@H](CC[C@H](O)C(CO)CO)[C@H]1CC[C@H]2[C@@H]3[C@H](O)C[C@@H]4C[C@H](O)CC[C@]4(C)[C@H]3C[C@H](O)[C@]12C the Activity [1] was “inactive”, the Activity [2] was “Toxic” and the Activity [3] was “Dose-Dependent Effect”. The Activity [4] was “inactive”.

For C[C@H](CC[C@H](O)C(CO)COS(=O)(=O)O)[C@H]1CC[C@H]2[C@@H]3[C@H](O)C[C@@H]4C[C@H](O)CC[C@]4(C)[C@H]3C[C@H](O)[C@]12C (some centres not stated), the Activity [5] was “inactive”, the Activity [2] was “Non-Toxic” and the Activity [6] was “inactive”.

C[C@H](CCC(=O)O)[C@H]1CC[C@H]2[C@@H]3CC[C@@H]4C[C@H](O)CC[C@]4(C)[C@H]3C[C@H](O)[C@]12C [DEOXYCHOLIC ACID] was tested, and the Activity [7] was “Toxic”, the Activity [8] was “inactive” and the Activity [9] was “inactive”. For the same compound, the Activity [10] was “Dose-Dependent Effect”, the Activity [11] was “Active” and the Activity [12] was “Active”. For the same compound, the Activity [13] was “Toxic” and the Activity [14] was “Dose-Dependent Effect”.

C[C@H](CCC(=O)O)[C@H]1CC[C@H]2[C@@H]3[C@@H](O)C[C@@H]4C[C@H](O)CC[C@]4(C)[C@H]3CC[C@]12C [URSODIOL] was tested, and the Activity [5] was “inactive” and the Activity [2] was “Non-Toxic”.
